The values that follow come from patent publication US20140329863A1 (priority 2011, published 2014).

Test systems include PrP^C in IMR32 cells; IMR32 cells; PrP^C in T98G cells.
Common to all, as to type: cell-based, human
A further experiment relates to T98G cells. Nature of the experiment: cells. Particulars: calcein, T98G cells.
Further: test concentration or dose not given here.

For the molecule `COc1ccc(NC(=O)Nc2ccc(SC(F)(F)F)cc2)cc1` [IND-0002925], the “% Inhibition: SPC (IMR32)” value with PrP^C in IMR32 cells is on record as “MW: 342.3 % Inhibition: SPC (IMR32): 22 Calcein: 13 SPC (T98G): 62 Calcein: −10”. Moreover, the “% Inhibition: Calcein (IMR32)” value in the experiment on IMR32 cells was 13%. The “% Inhibition: Calcein (T98G)” value with T98G cells is −10%. For the same molecule, the “% Inhibition: SPC (T98G)” value with PrP^C in T98G cells is “MW: 342.3 % Inhibition: SPC (IMR32): 22 Calcein: 13 SPC (T98G): 62 Calcein: −10”.
As to `CCS(=O)(=O)c1ncc(Cl)c(C(=O)Nc2ccccc2C)n1` [IND-0081396], the “% Inhibition: SPC (IMR32)” value with PrP^C in IMR32 cells was “MW: 339.8 % Inhibition: SPC (IMR32): 91 Calcein: 15 SPC (T98G): −5 Calcein: −8”. In addition, the “% Inhibition: Calcein (IMR32)” value in the experiment on IMR32 cells is on record as 15%. Also, the “% Inhibition: Calcein (T98G)” value with T98G cells was −8%. For the same molecule, in the experiment on PrP^C in T98G cells, the “% Inhibition: SPC (T98G)” value is “MW: 339.8 % Inhibition: SPC (IMR32): 91 Calcein: 15 SPC (T98G): −5 Calcein: −8”.
Turning to `Cc1cccc(N2CCN(C(=O)c3ccc4c(c3)OCO4)CC2)c1C` [IND-0023025], the “% Inhibition: SPC (IMR32)” value in the experiment on PrP^C in IMR32 cells is recorded as “MW: 338.4 % Inhibition: SPC (IMR32): 34 Calcein: 15 SPC (T98G): 34 Calcein: 26”. The “% Inhibition: Calcein (IMR32)” value in the experiment on IMR32 cells is 15%. Also, the “% Inhibition: Calcein (T98G)” value in the experiment on T98G cells was 26%. In addition, the “% Inhibition: SPC (T98G)” value with PrP^C in T98G cells was “MW: 338.4 % Inhibition: SPC (IMR32): 34 Calcein: 15 SPC (T98G): 34 Calcein: 26”.
Regarding `OCCNC1CCCc2c1[nH]c1ccc(Br)cc21` (stereo not drawn) [IND-0015066], in the experiment with PrP^C in IMR32 cells, the “% Inhibition: SPC (IMR32)” value is “MW: 309.2 % Inhibition: SPC (IMR32): 45 Calcein: 2 SPC (T98G): −11 Calcein: −27”. For the same molecule, in the experiment with IMR32 cells, the “% Inhibition: Calcein (IMR32)” value was 2%. The “% Inhibition: Calcein (T98G)” value in the experiment on T98G cells was −27%. Moreover, the “% Inhibition: SPC (T98G)” value in the experiment on PrP^C in T98G cells was “MW: 309.2 % Inhibition: SPC (IMR32): 45 Calcein: 2 SPC (T98G): −11 Calcein: −27”.
With `CC(=O)N1CCc2c([nH]c3ccccc23)C1c1ccc(Cl)cc1` (stereo not drawn) [IND-0017998], the “% Inhibition: SPC (IMR32)” value in the experiment with PrP^C in IMR32 cells is reported as “MW: 324.8 % Inhibition: SPC (IMR32): 73 Calcein: 7 SPC (T98G): 74 Calcein: −19”. Moreover, in the experiment with IMR32 cells, the “% Inhibition: Calcein (IMR32)” value is on record as 7%. Moreover, in the experiment with T98G cells, the “% Inhibition: Calcein (T98G)” value was −19%. Moreover, in the experiment with PrP^C in T98G cells, the “% Inhibition: SPC (T98G)” value is reported as “MW: 324.8 % Inhibition: SPC (IMR32): 73 Calcein: 7 SPC (T98G): 74 Calcein: −19”.
Take `CCc1ccc(C2C(C#N)=C(N)Oc3cc(N(C)C)ccc32)cc1` (stereo not drawn) [IND-0020681]: in the experiment on PrP^C in IMR32 cells, the “% Inhibition: SPC (IMR32)” value is “MW: 319.4 % Inhibition: SPC (IMR32): 48 Calcein: 39 SPC (T98G): 43 Calcein: 21”. For the same molecule, the “% Inhibition: Calcein (IMR32)” value in the experiment on IMR32 cells was 39%. Moreover, in the experiment on T98G cells, the “% Inhibition: Calcein (T98G)” value is 21%. The “% Inhibition: SPC (T98G)” value in the experiment with PrP^C in T98G cells was “MW: 319.4 % Inhibition: SPC (IMR32): 48 Calcein: 39 SPC (T98G): 43 Calcein: 21”.
As for `Cc1cc(C)c(S(=O)(=O)NCc2ccccc2)c(C)c1` [IND-0014135], in the experiment on PrP^C in IMR32 cells, the “% Inhibition: SPC (IMR32)” value is on record as “MW: 289.4 % Inhibition SPC (IMR32): 55 Calcein: 4 SPC (T98G): 39 Calcein: 9”. Besides, in the experiment on IMR32 cells, the “% Inhibition: Calcein (IMR32)” value is 4%. In the experiment on T98G cells, the “% Inhibition: Calcein (T98G)” value is given as 9%. For the same molecule, the “% Inhibition: SPC (T98G)” value in the experiment on PrP^C in T98G cells is “MW: 289.4 % Inhibition SPC (IMR32): 55 Calcein: 4 SPC (T98G): 39 Calcein: 9”.
In the case of `N#Cc1c(NC(=O)CCc2cccs2)sc2c1CCCC2` [IND-0082865], the “% Inhibition: SPC (IMR32)” value in the experiment on PrP^C in IMR32 cells is “MW: 316.4 % Inhibition: SPC (IMR32): 60 Calcein: 37 SPC (T98G): 51 Calcein: 17”. The “% Inhibition: Calcein (IMR32)” value with IMR32 cells is recorded as 37%. The “% Inhibition: Calcein (T98G)” value with T98G cells was 17%. In the experiment on PrP^C in T98G cells, the “% Inhibition: SPC (T98G)” value was “MW: 316.4 % Inhibition: SPC (IMR32): 60 Calcein: 37 SPC (T98G): 51 Calcein: 17”.
For `COc1ccc(C(=O)NCc2cc(C)nc3ccccc23)cc1` [IND-0086056], the “% Inhibition: SPC (IMR32)” value in the experiment with PrP^C in IMR32 cells is listed as “MW: 306.4 % Inhibition: SPC (IMR32): 45 Calcein: 18 SPC (T98G): 49 Calcein: 20”. Also, the “% Inhibition: Calcein (IMR32)” value in the experiment with IMR32 cells was 18%. Besides, the “% Inhibition: Calcein (T98G)” value in the experiment with T98G cells is 20%. Also, in the experiment with PrP^C in T98G cells, the “% Inhibition: SPC (T98G)” value is given as “MW: 306.4 % Inhibition: SPC (IMR32): 45 Calcein: 18 SPC (T98G): 49 Calcein: 20”.
For `Cc1[nH]c2ccccc2c1-c1ccnc2ccccc12` [IND-0010878], the “% Inhibition: SPC (IMR32)” value in the experiment on PrP^C in IMR32 cells is recorded as “MW: 318.4 % Inhibition: SPC (IMR32): 34 Calcein: 19 SPC (T98G): 64 Calcein: 25”. Besides, the “% Inhibition: Calcein (IMR32)” value with IMR32 cells is given as 19%. In addition, the “% Inhibition: Calcein (T98G)” value in the experiment with T98G cells is 25%. Further, the “% Inhibition: SPC (T98G)” value in the experiment with PrP^C in T98G cells is listed as “MW: 318.4 % Inhibition: SPC (IMR32): 34 Calcein: 19 SPC (T98G): 64 Calcein: 25”.
In the case of `COc1ccc(S(=O)(=O)Nc2cc(C)ccc2C)cc1` [IND-0007902], in the experiment on PrP^C in IMR32 cells, the “% Inhibition: SPC (IMR32)” value is recorded as “MW: 291.4 % Inhibition: SPC (IMR32): 38 Calcein: 36 SPC (T98G): 51 Calcein: 19”. Moreover, the “% Inhibition: Calcein (IMR32)” value in the experiment on IMR32 cells is listed as 36%. Moreover, in the experiment with T98G cells, the “% Inhibition: Calcein (T98G)” value is recorded as 19%. For the same molecule, the “% Inhibition: SPC (T98G)” value in the experiment on PrP^C in T98G cells is listed as “MW: 291.4 % Inhibition: SPC (IMR32): 38 Calcein: 36 SPC (T98G): 51 Calcein: 19”.
For the molecule `Cc1cccc(Nc2nc(-c3ccncc3)cs2)c1` [IND-0022317], in the experiment with PrP^C in IMR32 cells, the “% Inhibition: SPC (IMR32)” value is “MW: 267.4 % Inhibition: SPC (IMR32): 87 Calcein: 35 SPC (T98G): 65 Calcein: 5”. For the same molecule, in the experiment with IMR32 cells, the “% Inhibition: Calcein (IMR32)” value is listed as 35%. In addition, in the experiment with T98G cells, the “% Inhibition: Calcein (T98G)” value was 5%. Besides, the “% Inhibition: SPC (T98G)” value with PrP^C in T98G cells was “MW: 267.4 % Inhibition: SPC (IMR32): 87 Calcein: 35 SPC (T98G): 65 Calcein: 5”.
`COc1ccccc1C(=O)N1CCN(c2cccc(Cl)c2)CC1` [IND-0021750]: the “% Inhibition: SPC (IMR32)” value in the experiment with PrP^C in IMR32 cells was “MW: 330.8 % Inhibition: SPC (IMR32): 44 Calcein: 25 SPC (T98G): 52 Calcein: 21”. In the experiment with IMR32 cells, the “% Inhibition: Calcein (IMR32)” value is on record as 25%. Moreover, the “% Inhibition: Calcein (T98G)” value with T98G cells is on record as 21%. The “% Inhibition: SPC (T98G)” value in the experiment with PrP^C in T98G cells was “MW: 330.8 % Inhibition: SPC (IMR32): 44 Calcein: 25 SPC (T98G): 52 Calcein: 21”.
With `CCS(=O)(=O)c1ncc(Cl)c(C(=O)Nc2ccc(F)cc2)n1` [IND-0081737], the “% Inhibition: SPC (IMR32)” value in the experiment with PrP^C in IMR32 cells is given as “MW: 343.8 % Inhibition: SPC (IMR32): 41 Calcein: 18 SPC (T98G): −10 Calcein: −4”. The “% Inhibition: Calcein (IMR32)” value in the experiment with IMR32 cells is on record as 18%. Also, the “% Inhibition: Calcein (T98G)” value in the experiment on T98G cells is on record as −4%. Also, in the experiment with PrP^C in T98G cells, the “% Inhibition: SPC (T98G)” value was “MW: 343.8 % Inhibition: SPC (IMR32): 41 Calcein: 18 SPC (T98G): −10 Calcein: −4”.
For the molecule `CC(C)c1ccc(NC(=O)Nc2cnccn2)cc1` [IND-0088907], in the experiment with PrP^C in IMR32 cells, the “% Inhibition: SPC (IMR32)” value is listed as “MW: 256.3 % Inhibition: SPC (IMR32): 4 Calcein: 9 SPC (T98G): 46 Calcein: 27”. Besides, the “% Inhibition: Calcein (IMR32)” value with IMR32 cells is reported as 9%. Moreover, in the experiment with T98G cells, the “% Inhibition: Calcein (T98G)” value is recorded as 27%. In addition, the “% Inhibition: SPC (T98G)” value with PrP^C in T98G cells was “MW: 256.3 % Inhibition: SPC (IMR32): 4 Calcein: 9 SPC (T98G): 46 Calcein: 27”.
With `CC(C)(C)NCC(O)COc1ccc(C23CC4CC(CC(C4)C2)C3)cc1` (stereo not drawn) [IND-0003070], the “% Inhibition: SPC (IMR32)” value in the experiment with PrP^C in IMR32 cells is given as “MW: 285.4 % Inhibition: SPC (IMR32): 94 Calcein: 34 SPC (T98G): −55 Calcein: −13”. The “% Inhibition: Calcein (IMR32)” value in the experiment with IMR32 cells was 34%. In the experiment with T98G cells, the “% Inhibition: Calcein (T98G)” value is recorded as −13%. In the experiment with PrP^C in T98G cells, the “% Inhibition: SPC (T98G)” value is reported as “MW: 285.4 % Inhibition: SPC (IMR32): 94 Calcein: 34 SPC (T98G): −55 Calcein: −13”.
Consider `COc1ccc(C(NC(C)=O)c2ccc3cccnc3c2O)cc1` (stereo not drawn) [IND-0058521], for which the “% Inhibition: SPC (IMR32)” value in the experiment with PrP^C in IMR32 cells was “MW: 322.4 % Inhibition: SPC (IMR32): 56 Calcein: 17 SPC (T98G): 49 Calcein: 3”. Moreover, the “% Inhibition: Calcein (IMR32)” value in the experiment on IMR32 cells was 17%. In addition, the “% Inhibition: Calcein (T98G)” value in the experiment on T98G cells is 3%. The “% Inhibition: SPC (T98G)” value in the experiment with PrP^C in T98G cells is “MW: 322.4 % Inhibition: SPC (IMR32): 56 Calcein: 17 SPC (T98G): 49 Calcein: 3”.
On to `Cc1nc2sccn2c1-c1csc(Nc2ccc(N(C)C)cc2)n1` [IND-0009688], for which the “% Inhibition: SPC (IMR32)” value in the experiment on PrP^C in IMR32 cells is “MW: 288.8 % Inhibition: SPC (IMR32): 66 Calcein: 38 SPC (T98G): 31 Calcein: 8”. Also, in the experiment with IMR32 cells, the “% Inhibition: Calcein (IMR32)” value is 38%. The “% Inhibition: Calcein (T98G)” value in the experiment with T98G cells is 8%. The “% Inhibition: SPC (T98G)” value in the experiment with PrP^C in T98G cells is on record as “MW: 288.8 % Inhibition: SPC (IMR32): 66 Calcein: 38 SPC (T98G): 31 Calcein: 8”.
